Results published in patent US12139526B2, “Modified chimeric receptors and related compositions and methods” (Juno Therapeutics, Inc., priority 2015, dated 2024).
Peptide text beside a SMILES is read from it.

Columns and labels:
HLA-A*03:01 = HLA-A*03:01 (Homo sapiens, UniProt P04439); assay: REVEAL Epitope Discovery System in vitro MHC-peptide binding score; settings: positive control peptide set at 100%, greater than 50 = good or high affinity binding
Procedure: (§1) Actual binding affinities for certain HLA class I alleles (A*02:01, A*03:01. A*11:01, and B*08:01) were assessed in vitro for exemplary overlapping 9 amino acid peptide sequences within a portion of the 26 amino acid junction region spanning the CD28 and 4-1BB junction. Specifically, assessment was of a series of overlapping 9-mer peptides derived from the sequence […] (set forth in SEQ ID NO: 7), which contains a portion of the CD28 transmembrane domain and 4-1BB costimulatory domain spanning the junction between the domains (bond joining the two amino acids noted in underline). In addition, a series of overlapping 9-mer peptides of each of a number of different variants of this portion also were assessed, each variant containing a mutation or mutations in this region as described in Example 2.
(§2) The various 9-mer overlapping peptides were synthesized and their purity tested by MALDI-TOF Mass Spectrometry. The synthetic peptides were then incubated with recombinant MHC molecules to assess binding properties using the REVEAL Epitope Discovery System, which is a high-throughput binding assay that measures the degree to which each peptide is able to stabilize a ternary MHC-peptide complex (ProImmune, Oxford, United Kingdom). Each peptide was separately tested for this ability with respect to each of the HLA class I alleles, normalized to the degree observed for a positive control (known T cell epitope for the relevant allele). The results are reported as a score, in which the binding was normalized to the positive control peptide set at 100%.

HLA-A*02:01 = HLA-A*02:01 (Homo sapiens, UniProt P04439, D140Y/D185E/D98H/E176V/E277Q/G131W/G231S/I119V/I121R/I166T/I218V/L300P/L318F/N151K/N90K/P208A/P217A/Q86G/Q94H/R138H/R169H/T345S); assay: as above; settings: for A*02:01 In Vitro Score: REVEAL score, positive control peptide set at 100%, greater than 50 = good or high affinity binding; for predicted or actual binding affinity or score for HLA class I: for at least one HLA allele (A*02:01, A*03:01, A*11:01, B*08:01) and/or at least one peptide, in silico or in vitro
Procedure: as §1, §2

HLA-A*11:01 = HLA-A*11:01 (Homo sapiens, UniProt P04439, A114D/D185E/E176A/F33Y/L180Q/S129P/T187R); assay: as above; set-up: key: % binding, normalized to positive control peptide set at 100%; settings: binding normalized to positive control peptide set at 100%, greater than 50 considered good or high affinity binding
Procedure: as §1, §2

HLA-B*08:01 = HLA-B*08:01 (Homo sapiens, UniProt P01889, A93T/A95T/D138N/E176V/E187T/K202T/Q94N/R180D/S35A/V36M/Y33D/Y91F); assay: as above; set-up: key: % binding, normalized to positive control peptide set at 100%; settings: binding normalized to positive control peptide set at 100%, greater than 50 considered good or high affinity binding
Procedure: as §1, §2

[1] = test system: post-infusion PBMC samples
[2] = test system: intracellular IL-2 and IFN-γ; assay: Intracellular cytokine expression after co-culture with K562-CD19; type: cell-based, human; settings: versus unmodified CAR; for percentage of cells with IFN-γ cytokine expression: CD8+/CAR+ T cells after antigen stimulation; for percentage of cells with intracellular expression of IL-2: CD4+/CAR+ and CD8+/CAR+ T cells after antigen stimulation
Procedure: The production of cytokines by the anti-CD19 CAR T cells, expressing CARs containing either the native junction region or the various modified junction regions, was assessed. Engineered T cells were co-cultured with irradiated CD19-transduced K562 target cells (K562-CD19) or parental K562 cells not expressing the CD19 antigen in the presence of Golgi inhibitor. After stimulation, the cells were then fixed, permeabilized and intracellular IL-2 and IFN-γ cytokine levels were assessed by flow cytometry in CD4+/CAR+ cells and CD8+/CAR+ cells

IFWVQRGNK [9-mer variant junction peptide, K28Q/R31N]
A*03:01 In Vitro (HLA-A*03:01): 23.20
A*02:01 In Vitro Score (HLA-A*02:01): 16.10
A*11:01 In Vitro Score (HLA-A*11:01): 67.50
B*08:01 In Vitro Score (HLA-B*08:01): 0.10

WVKRGSKKL [9-mer variant junction peptide, R31S]
A*03:01 In Vitro (HLA-A*03:01): 1.90
A*02:01 In Vitro Score (HLA-A*02:01): 3.00
A*11:01 In Vitro Score (HLA-A*11:01): 11.80
B*08:01 In Vitro Score (HLA-B*08:01): 56.10

IFWVKRGHK [9-mer variant junction peptide, R31H]
A*03:01 In Vitro (HLA-A*03:01): 9.00
A*02:01 In Vitro Score (HLA-A*02:01): 2.20
A*11:01 In Vitro Score (HLA-A*11:01): 30.90
B*08:01 In Vitro Score (HLA-B*08:01): 3.20

IFWVKRGNK [9-mer variant junction peptide, R31N]
A*03:01 In Vitro (HLA-A*03:01): 8.00
A*02:01 In Vitro Score (HLA-A*02:01): 3.50
A*11:01 In Vitro Score (HLA-A*11:01): 45.90
B*08:01 In Vitro Score (HLA-B*08:01): 0.10

IFWVKRGLK [9-mer variant junction peptide, R31L]
A*03:01 In Vitro (HLA-A*03:01): 26.90
A*02:01 In Vitro Score (HLA-A*02:01): 2.40
A*11:01 In Vitro Score (HLA-A*11:01): 61.10
B*08:01 In Vitro Score (HLA-B*08:01): 58.30

FIIFWVHRG [9-mer variant junction peptide, K28H]
A*03:01 In Vitro (HLA-A*03:01): 0.00
A*02:01 In Vitro Score (HLA-A*02:01): 37.30
A*11:01 In Vitro Score (HLA-A*11:01): 0.90
B*08:01 In Vitro Score (HLA-B*08:01): 0.20

IFWVKRGAK [9-mer variant junction peptide, R31A]
A*03:01 In Vitro (HLA-A*03:01): 22.00
A*02:01 In Vitro Score (HLA-A*02:01): 13.80
A*11:01 In Vitro Score (HLA-A*11:01): 69.70
B*08:01 In Vitro Score (HLA-B*08:01): 2.20

CC[C@H](C)[C@H](NC(=O)[C@H](Cc1ccccc1)NC(=O)[C@H](C)N)C(=O)N[C@H](C(=O)N[C@@H](Cc1ccccc1)C(=O)N[C@@H](Cc1c[nH]c2ccccc12)C(=O)N[C@H](C(=O)N[C@@H](CCCCN)C(=O)N[C@@H](CCCNC(=N)N)C(=O)NCC(=O)N[C@@H](CCCNC(=N)N)C(=O)N[C@@H](CCCCN)C(=O)N[C@@H](CCCCN)C(=O)N[C@@H](CC(C)C)C(=O)N[C@@H](CC(C)C)C(=O)O)C(C)C)[C@@H](C)CC (H-AFIIFWVKRGRKKLL-OH; N-terminus and C-terminus assumed)
specific immune response (ELISpot) [1]: specific immune responses also were detected

IIFWVKRGS [9-mer variant junction peptide, R31S]
A*03:01 In Vitro (HLA-A*03:01): 16.20
A*02:01 In Vitro Score (HLA-A*02:01): 13.60
A*11:01 In Vitro Score (HLA-A*11:01): 100.00
B*08:01 In Vitro Score (HLA-B*08:01): 0.40

IFWVKRGSK [9-mer variant junction peptide, R31S]
A*03:01 In Vitro (HLA-A*03:01): 10.40
A*02:01 In Vitro Score (HLA-A*02:01): 2.40
A*11:01 In Vitro Score (HLA-A*11:01): 47.90
B*08:01 In Vitro Score (HLA-B*08:01): 1.20

AFIIFWVSR [9-mer variant junction peptide, K28S]
A*03:01 In Vitro (HLA-A*03:01): 0.30
A*02:01 In Vitro Score (HLA-A*02:01): 4.50
A*11:01 In Vitro Score (HLA-A*11:01): 54.00
B*08:01 In Vitro Score (HLA-B*08:01): 0.30

IFWVARGRK [9-mer variant junction peptide, K28A]
A*03:01 In Vitro (HLA-A*03:01): 53.70
A*02:01 In Vitro Score (HLA-A*02:01): 1.00
A*11:01 In Vitro Score (HLA-A*11:01): 34.90
B*08:01 In Vitro Score (HLA-B*08:01): 0.00

IFWVHRGRK [9-mer variant junction peptide, K28H]
A*03:01 In Vitro (HLA-A*03:01): 37.80
A*02:01 In Vitro Score (HLA-A*02:01): 7.10
A*11:01 In Vitro Score (HLA-A*11:01): 36.60
B*08:01 In Vitro Score (HLA-B*08:01): 0.10

WVKRGAKKL [9-mer variant junction peptide, R31A]
A*03:01 In Vitro (HLA-A*03:01): 4.10
A*02:01 In Vitro Score (HLA-A*02:01): 4.70
A*11:01 In Vitro Score (HLA-A*11:01): 4.60
B*08:01 In Vitro Score (HLA-B*08:01): 34.10

CC[C@H](C)[C@H](NC(=O)[C@H](Cc1ccc(O)cc1)NC(=O)[C@H](CC(C)C)NC(=O)[C@H](CC(C)C)NC(=O)[C@H](CCCCN)NC(=O)[C@H](CCCCN)NC(=O)[C@H](CCCNC(=N)N)NC(=O)CNC(=O)[C@H](CCCNC(=N)N)NC(=O)[C@H](CCCCN)NC(=O)[C@@H](NC(=O)[C@H](Cc1c[nH]c2ccccc12)NC(=O)[C@@H](N)Cc1ccccc1)C(C)C)C(=O)N[C@@H](Cc1ccccc1)C(=O)N[C@@H](CCCCN)C(=O)O (H-FWVKRGRKKLLYIFK-OH; N-terminus and C-terminus assumed)
specific immune response (ELISpot) [1]: specific immune responses also were detected

B1: R31H: variant anti-CD19 CAR / junction region with R31H, numbering SEQ ID NO:5 (protein)
chain: FWVLVVVGGVLACYSLLVTVAFIIFWVKRGHKKLLYIFKQPFMRPVQTTQEEDGCSCRFPEEEEGGCEL
modifications: CD28-4-1BB
predicted or actual binding affinity or score for HLA class I (HLA-A*02:01): reduced predicted or actual binding affinity or score
percentage of cells with IFN-γ cytokine expression [2]: increased IFN-γ cytokine expression

B2: L34A: variant anti-CD19 CAR / junction region with L34A, numbering SEQ ID NO:5 (protein)
chain: FWVLVVVGGVLACYSLLVTVAFIIFWVKRGRKKALYIFKQPFMRPVQTTQEEDGCSCRFPEEEEGGCEL
modifications: CD28-4-1BB
predicted or actual binding affinity or score for HLA class I (HLA-A*02:01): reduced predicted or actual binding affinity or score
percentage of cells with intracellular expression of IL-2 [2]: greater percentage
percentage of cells with IFN-γ cytokine expression [2]: increased IFN-γ cytokine expression

B3: L34S: variant anti-CD19 CAR / junction region with L34S, numbering SEQ ID NO:5 (protein)
chain: FWVLVVVGGVLACYSLLVTVAFIIFWVKRGRKKSLYIFKQPFMRPVQTTQEEDGCSCRFPEEEEGGCEL
modifications: CD28-4-1BB
predicted or actual binding affinity or score for HLA class I (HLA-A*02:01): reduced predicted or actual binding affinity or score
percentage of cells with intracellular expression of IL-2 [2]: greater percentage
